Test results reported in patent publication US7888120B2, “Global regulator of morphogenesis and pathogenicity in dimorphic fungi and uses thereof” (Wisconsin Alumni Research Foundation, priority 2006, dated 2011).

Test system: B. dermatitidis mutant 4-2-2
Type: cell-based, Blastomyces dermatitidis

Compound	Sensitivity of mutant versus parent strain T53-19
O=S(=O)([O-])c1cc(Nc2nc(Nc3ccccc3)nc(N(CCO)CCO)n2)ccc1/C=C/c1ccc(Nc2nc(Nc3ccccc3)nc(N(CCO)CCO)n2)cc1S(=O)(=O)[O-].[Na+].[Na+] [calcofluor]	more sensitive than the parent strain
Nc1c(/N=N/c2ccc(-c3ccc(/N=N/c4cc(S(=O)(=O)O)c5ccccc5c4N)cc3)cc2)cc(S(=O)(=O)O)c2ccccc12 [Congo red]	more sensitive than the parent strain
